# Where two headings read alike, the source gives them in different places.
# Legend:
# Type in all cases: cell-based
# WEE1 = biological target: T1, WEE1 (Homo sapiens, UniProt P30291+Q96SW2); test: WEE1-ePL degradation assay (293T-LentiX, InCELL Hunter luminescence, 4 hr); details: for 293T-LentiX WEE1-ePL Degradation 4 hr YMin (%): lower limit of fit, % of DMSO control signal remaining; for DC50: LentiX-HEK293T cells expressing WEE1-ePL, 4 hr incubation, read-out: 293T-LentiX WEE1-ePL Degradation 4 hr EC50
# T1 construct: C-terminal ePL-tagged (DiscoverX, Fremont, CA) full-length WEE1 expression construct; expressed in transfected cells; host or cells: LentiX-HEK293T (Invitrogen), lentivirally transduced; the cells also over-express GSPT1-GN
# Source text: To generate LentiX-WEE1-ePL-GSPT1-ND cells for the WEE1 degradation assay, LentiX-HEK293T (Invitrogen) were tranduced by lentivirus with a C-terminal ePL-tagged (DiscoverX, Fremont, CA) full-length WEE1 expression construct. A separate lentiviral construct was introduced to over-express a mutated form of GSPT1 (NP_002085), termed GSPT1-GN, which contains a G575N mutation and is further truncated in the first 158 amino acids. GSPT1-GN is functional but not degradable by Cereblon. Cells were selected and maintained in complete DMEM media (DMEM, 10% Heat Inactivated FBS, 400 μg/mL Geneticin, and 1 μg/mL puromycin at 37 C and 5% CO2). Cells were passaged every 3-4 days by reseeding 1×10^6 cells in a T150 flask.
# Cells were dispensed into 384-well white plates (Corning #3570, NY) that were pre-spotted with compounds using an acoustic dispenser (Echo acoustic transfer system, Beckman Coulter Life Sciences, Carlsbad, CA) as a 10-point dose-response curve with a 3-fold dilution starting at either 1 uM or 10 uM and including a DMSO control. Twenty-five microliters of media containing 2500 cells for LentiX-oeWEE1-ePL was dispensed per well. Assay plates were incubated at 37° C. with 5% CO2 for four hours (WEE1) After incubation, 25 μL of the InCELL Hunter™ Detection Reagent Working Solution (DiscoverX, Fremont, CA) was added to each well and incubated at room temperature for 30 minutes protected from light. After 30 minutes, luminescence was read on a PHERAstar luminometer (Cary, NC).
# To determine the half-maximal effective concentration (EC50) values for WEE1-ePL degradation, a four parameter logistic model was used: (Sigmoidal Dose-Response Model) (FIT=(A+((B−A)/1+((C/x)^D)))) where C is the inflection point (EC50), D is the Hill slope, and A and B are the low and high limits of the fit respectively). The lower limit of the fit (value A) is referred to as Ymin. […] The maximum limit constraint, Ymax, is similarly derived using DMSO control. The curves were processed and evaluated using Activity Base (IDBS, Alameda, CA) or using Dotmatics (Boston, MA).
# MKN45 cells = test: MKN45 cell proliferation assay (Cell-Titer-Glo, 120 hr); details: for MKN45 Cell Prolif. 120 hr YMin (%): minimal percent of DMSO control observed; for EC50: read-out: MKN45 Cell Prolif. 120 hr EC50
# Source text: (§1) MKN45 cells were obtained from Celgene internal cell banks and cultured in RPMI complete media (RPMI-1640, 1× Penicillin/Streptomycin, 1× glutamine, 1× Sodium Pyruvate, Non-essential Amino Acids, 10% Fetal Bovine serum, all component from Thermo-Fisher). MDA-MB-231 cells were obtained from the ATCC (HTB-26) and cultured in RPMI-1640 and 10% Fetal Bovine serum; MDA-MB-231 cells were expanded and stored as aliquots in liquid nitrogen in Celgene internal cell banks. Compounds were dispensed into 384-well plates using an HP DE300 compound printer in triplicate with 8 compounds on each plate. Compounds were dispensed into 384-well black clear bottom plates (Corning #3764BC) using an EDC acoustic dispenser at BMS. For each compound, a 10-point dose response was printed at half-log dilutions starting at either 1 uM or 10 uM in triplicate for MKN45 cells and in duplicate for MDA-MB-231 cells. The DMSO concentration was kept constant for a final assay concentration of 0.1% per well assuming 50 ul final media volume. Compound plates were sealed and frozen at −20 C until use.
# (§2) For each assay batch, compound plates were thawed and allowed to reach room temperature, and cells were seeded at 400 MKN45 cells per well, or 800 MDA-MB-231 cells per well, in 50 ul media listed above for each cell line. After 120 hours of incubation at 37 C and 5% CO2, cells were lysed by addition of 25 μL of Cell-Titer-Glo Reagent (Promega Corporation, Madison, WI), as per manufacturer's instructions, protected from light, shaken for 45 minutes, and total luminescence read by a Perkin Elmer Envision plate reader. Total luminescence signal is linearly correlated with cell number remaining in the well.
# (§3) Luminescence data was processed per plate by subtracting reagent-only “blank” well luminescence from all measured values and calculating a percent of DMSO control value for each treatment well. Then, to determine the half-maximal effective concentration (EC50) values for cell growth inhibition, a four parameter logistic model was fit to the data for each DMSO-normalized compound: Sigmoidal Dose-Response Model: (FIT=(A+((B−A)/1+((C/x)^D)))) where C is the inflection point ([…]), D is the Hill slope, and A and B are the low and high limits of the fit respectively. The lower limit of the fit (value A) is referred to as Ymin-calculated. The minimal percent of DMSO control that is observed in the concentrations tested for each compound is labeled as “Ymin-obs”, and was recorded and reported in the tables. Sigmoidal fit curves were processed and evaluated using Activity Base (IDBS, Alameda, CA) or using Dotmatics (Boston, MA). N/A=not available at the present time.
# MDA-MB-231 cells = test: MDA-MB-231 cell proliferation assay (Cell-Titer-Glo, 120 hr); details: for EC50: read-out: MDA-MB 231 Cell Prolif. 120 hr EC50; for MDA-MB 231 Cell Prolif. 120 hr YMin (%): minimal percent of DMSO control observed
# Source text: as §1, §2, §3
# [1] = Homo sapiens, MDA-MB-231, 120 h
# T1 sequence (P30291 whole entry): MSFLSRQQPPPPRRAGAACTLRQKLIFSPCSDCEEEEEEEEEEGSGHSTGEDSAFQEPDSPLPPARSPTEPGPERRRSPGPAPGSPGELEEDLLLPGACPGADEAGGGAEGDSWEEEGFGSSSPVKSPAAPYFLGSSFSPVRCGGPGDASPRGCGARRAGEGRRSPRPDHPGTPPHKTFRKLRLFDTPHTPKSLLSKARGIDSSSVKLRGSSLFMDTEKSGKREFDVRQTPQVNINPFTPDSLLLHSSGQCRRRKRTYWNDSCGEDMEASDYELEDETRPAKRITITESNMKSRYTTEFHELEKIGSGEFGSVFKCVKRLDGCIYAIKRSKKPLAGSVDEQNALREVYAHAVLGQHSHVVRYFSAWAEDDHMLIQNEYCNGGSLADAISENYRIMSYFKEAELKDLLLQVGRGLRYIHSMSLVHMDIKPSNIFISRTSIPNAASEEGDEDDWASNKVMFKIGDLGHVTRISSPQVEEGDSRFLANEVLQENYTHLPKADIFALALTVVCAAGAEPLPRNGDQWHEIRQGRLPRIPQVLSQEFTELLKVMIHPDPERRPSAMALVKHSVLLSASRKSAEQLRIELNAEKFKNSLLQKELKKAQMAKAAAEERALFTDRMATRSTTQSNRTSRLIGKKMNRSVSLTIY
# T1 sequence (Q96SW2 whole entry): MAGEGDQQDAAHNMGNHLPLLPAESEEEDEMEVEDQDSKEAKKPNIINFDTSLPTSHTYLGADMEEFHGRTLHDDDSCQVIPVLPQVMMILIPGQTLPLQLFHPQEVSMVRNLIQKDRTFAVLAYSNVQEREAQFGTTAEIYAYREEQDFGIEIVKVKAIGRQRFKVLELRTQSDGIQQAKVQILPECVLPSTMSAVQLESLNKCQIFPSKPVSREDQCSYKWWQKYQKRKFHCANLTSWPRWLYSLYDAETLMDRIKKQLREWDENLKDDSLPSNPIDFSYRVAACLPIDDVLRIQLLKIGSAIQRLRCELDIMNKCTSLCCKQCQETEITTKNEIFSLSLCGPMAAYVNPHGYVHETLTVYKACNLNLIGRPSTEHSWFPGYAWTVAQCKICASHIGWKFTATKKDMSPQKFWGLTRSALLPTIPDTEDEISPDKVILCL
# T1 sequence (Q16531 whole entry partner): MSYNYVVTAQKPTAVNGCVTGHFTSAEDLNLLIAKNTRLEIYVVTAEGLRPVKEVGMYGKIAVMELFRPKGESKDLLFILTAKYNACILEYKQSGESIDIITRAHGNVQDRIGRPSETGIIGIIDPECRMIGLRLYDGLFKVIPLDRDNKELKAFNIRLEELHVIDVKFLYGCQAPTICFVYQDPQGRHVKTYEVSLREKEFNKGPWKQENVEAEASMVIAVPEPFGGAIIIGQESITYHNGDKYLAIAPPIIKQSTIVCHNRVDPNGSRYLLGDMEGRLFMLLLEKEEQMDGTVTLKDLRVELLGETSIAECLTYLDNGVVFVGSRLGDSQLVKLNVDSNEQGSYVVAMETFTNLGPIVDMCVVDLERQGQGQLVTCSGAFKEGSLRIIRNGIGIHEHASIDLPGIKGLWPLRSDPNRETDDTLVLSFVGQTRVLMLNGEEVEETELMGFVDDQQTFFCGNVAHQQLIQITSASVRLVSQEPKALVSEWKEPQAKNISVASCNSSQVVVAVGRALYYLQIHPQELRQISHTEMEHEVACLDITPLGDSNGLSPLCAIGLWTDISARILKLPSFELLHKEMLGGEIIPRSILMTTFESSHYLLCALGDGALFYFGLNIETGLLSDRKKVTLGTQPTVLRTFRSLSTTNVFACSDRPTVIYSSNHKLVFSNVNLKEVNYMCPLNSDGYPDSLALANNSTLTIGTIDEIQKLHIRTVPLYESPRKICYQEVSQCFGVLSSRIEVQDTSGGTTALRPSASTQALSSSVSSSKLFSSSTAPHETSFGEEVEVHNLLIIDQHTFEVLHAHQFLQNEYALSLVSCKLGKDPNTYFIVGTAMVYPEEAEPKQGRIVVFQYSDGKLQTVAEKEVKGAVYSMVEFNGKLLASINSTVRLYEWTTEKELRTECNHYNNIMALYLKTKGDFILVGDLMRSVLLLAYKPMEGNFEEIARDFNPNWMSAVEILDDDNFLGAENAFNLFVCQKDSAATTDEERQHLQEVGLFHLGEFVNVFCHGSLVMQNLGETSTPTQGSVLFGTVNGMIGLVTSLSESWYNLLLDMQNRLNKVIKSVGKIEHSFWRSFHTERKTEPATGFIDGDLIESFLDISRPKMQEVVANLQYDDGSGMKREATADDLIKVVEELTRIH
Compound,293T-LentiX WEE1-ePL Degradation 4 hr YMin (%) (WEE1),MKN45 Cell Prolif. 120 hr YMin (%) (MKN45 cells),EC50 (MDA-MB-231 cells; [1]),MDA-MB 231 Cell Prolif. 120 hr YMin (%) (MDA-MB-231 cells),DC50 (WEE1),"EC50 (MKN45 cells; Homo sapiens, MKN-45, 120 h)",EC50 (MKN45 cells),EC50 (MDA-MB-231 cells)
"COC[C@@H]1CN(Cc2cc(F)c3nc(N4CCC(C(C)(C)O)CC4)ccc3c2)C[C@H]1Oc1ccc2c(c1)CN([C@H]1CCC(=O)NC1=O)C2=O [Example 110, (3S)-3-(5-{[(3S,4S)-1-({8-fluoro-2-[4-(2-hydroxypropan-2-yl)piperidin-1-yl]quinolin-6-yl}methyl)-4-(methoxymethyl)pyrrolidin-3-yl]oxy}-1-oxo-2,3-dihydro-1H-isoindol-2-yl)piperidine-2,6-dione]",27.3%,6.8%,12 nM,17.4%,–,–,–,–
"COC[C@@H]1CN(Cc2cc3ccc(N4CCOCC4)cc3cn2)C[C@H]1Oc1ccc2c(c1)CN([C@H]1CCC(=O)NC1=O)C2=O [Example 28, (3S)-3-(5-{[(3S,4S)-4-(methoxymethyl)-1-{[7-(morpholin-4-yl)isoquinolin-3-yl]methyl}pyrrolidin-3-yl]oxy}-1-oxo-2,3-dihydro-1H-isoindol-2-yl)piperidine-2,6-dione]",29.1%,11.2%,48 nM,22.1%,1 nM,1 nM,–,–
"O=C1CC[C@H](N2Cc3cc(O[C@H]4CCN(Cc5ccc6nc([C@@H]7CCO[C@]8(CCOC8)C7)ccc6c5)C4)ccc3C2=O)C(=O)N1 (relative stereo) [Example 21, rel-(3S)-3-(5-(((3S)-1-((2-(2,6-dioxaspiro[4.5]decan-9-yl)quinolin-6-yl)methyl)pyrrolidin-3-yl)oxy)-1-oxoisoindolin-2-yl)piperidine-2,6-dione]",29.8%,9.9%,129 nM,41.9%,1 nM,2 nM,–,–
"COC[C@@H]1CN(Cc2cc(F)c3nc(N4CCN(C(C)=O)C5(COC5)C4)ccc3c2)C[C@H]1Oc1ccc2c(c1)CN([C@H]1CCC(=O)NC1=O)C2=O [Example 93, (3S)-3-(5-{[(3S,4S)-1-[(2-{5-acetyl-2-oxa-5,8-diazaspiro[3.5]nonan-8-yl}-8-fluoroquinolin-6-yl)methyl]-4-(methoxymethyl)pyrrolidin-3-yl]oxy}-1-oxo-2,3-dihydro-1H-isoindol-2-yl)piperidine-2,6-dione]",21.9%,7.9%,69 nM,52.5%,1 nM,1 nM,–,–
"O=C1CC[C@H](N2Cc3cc(O[C@@H]4CN(Cc5cc(F)c6nc(C7CCOCC7)ccc6c5)C[C@H]4c4ccncc4)ccc3C2=O)C(=O)N1 (relative stereo) [Example 118, (S)-3-(5-(((3S*,4R*)-1-((8-fluoro-2-(tetrahydro-2H-pyran-4-yl)quinolin-6-yl)methyl)-4-(pyridin-4-yl)pyrrolidin-3-yl)oxy)-1-oxoisoindolin-2-yl)piperidine-2,6-dione]",92.4%,65.0%,286 nM,70.2%,–,–,–,–
"COC[C@@H]1CN(Cc2cc(F)c3nc(C(=O)N(C)C)ccc3c2)C[C@H]1Oc1ccc2c(c1)CN([C@H]1CCC(=O)NC1=O)C2=O [Example 58, 6-{[(3S,4S)-3-({2-[(3S)-2,6-dioxopiperidin-3-yl]-1-oxo-2,3-dihydro-1H-isoindol-5-yl}oxy)-4-(methoxymethyl)pyrrolidin-1-yl]methyl}-8-fluoro-N,N-dimethylquinoline-2-carboxamide]",31.1%,11.2%,213 nM,28.1%,5 nM,6 nM,–,–
"COC[C@@H]1CN(Cc2cc(F)c3nc(C(C)(C)O)ccc3c2)C[C@H]1Oc1ccc2c(c1)CN([C@H]1CCC(=O)NC1=O)C2=O [Example 32, (3S)-3-(5-{[(3S,4S)-1-{[8-fluoro-2-(2-hydroxypropan-2-yl)quinolin-6-yl]methyl}-4-(methoxymethyl)pyrrolidin-3-yl]oxy}-1-oxo-2,3-dihydro-1H-isoindol-2-yl)piperidine-2,6-dione]",33.4%,11.2%,67 nM,46.8%,1 nM,2 nM,–,–
"COC[C@@H]1CN(Cc2cc(F)c3nc(N4CCN(C(C)=O)C5(CC5)C4)ncc3c2)C[C@H]1Oc1ccc2c(c1)CN([C@H]1CCC(=O)NC1=O)C2=O [Example 85, (3S)-3-(5-{[(3S,4S)-1-[(2-{4-acetyl-4,7-diazaspiro[2.5]octan-7-yl}-8-fluoroquinazolin-6-yl)methyl]-4-(methoxymethyl)pyrrolidin-3-yl]oxy}-1-oxo-2,3-dihydro-1H-isoindol-2-yl)piperidine-2,6-dione]",27.9%,11.1%,22 nM,16.6%,1 nM,1 nM,–,–
"O=C1CCC(N2C(=O)c3ccc(O[C@H]4CCN(Cc5ccc6nc(N7CCOCC7)ncc6c5)C4)cc3C2=O)C(=O)N1 (single isomer, unassigned) [Example 27, 2-((R*)-2,6-dioxopiperidin-3-yl)-5-(((S)-1-((2-morpholino-quinazolin-6-yl)methyl)pyrrolidin-3-yl)oxy)isoindoline-1,3-dione]",–,29.1%,–,81.8%,–,–,205 nM,2990 nM
"O=C1CCC(N2C(=O)c3ccc(O[C@H]4CCN(Cc5ccc6nc(N7CCOCC7)ncc6c5)C4)cc3C2=O)C(=O)N1 (single isomer, unassigned) [Example 12, 2-((S*)-2,6-dioxopiperidin-3-yl)-5-(((S)-1-((2-morpholino-quinazolin-6-yl)methyl)pyrrolidin-3-yl)oxy)isoindoline-1,3-dione]",–,40.6%,2720 nM,79.6%,–,337 nM,–,–
